Consider nine molecules from patent US8841259B2, “Compositions and methods for treating vascular permeability” (Joslin Diabetes Center, priority 2005, dated 2014).

Experiment [1] deals with retinal vascular permeability (RVP) in rats. In words: Video fluorescein angiography of rat retina after intravitreal injection. It counts as in vivo. As for the experimental part: (§1) To measure retinal vascular permeability, 265 male Sprague Dawley and 12 male Long-Evans rats (Taconic Farms, Germantown, N.Y.) with initial body weights of 250 g were used. Experiments were performed in accordance with guidelines from the Association for Research in Vision and Opthalmology and approval from the Animal Care and Use committee of the Joslin Diabetes Center. Video fluorescein angiography was performed using a scanning laser opthalmoscope (Rodenstock Instrument, Munich, Germany) (Horio et al., Diabetologia 47:113-123 (2004)). Vitreous fluorophotometry and administration of fluorescein-dextran was performed as described previously (Aiello et al., Diabetes 46:1473-1480 (1997)).
Carbonic anhydrase was not detected by either mass spectroscopy or western blot analysis in the vitreous of untreated Sprague Dawley rats.

The test system is the same in experiment [2]. Nature of the experiment: Retinal vascular permeability by vitreous fluorophotometry after intravitreal injection. It counts as in vivo, rat. Particulars: for RVP (vitreous fluorescein intensity): CA-1 200 ng/eye, BSS control 7.4 au; for effect on CA-1 induced permeability: co-injection of serpin family proteins. How it is done:
as §1
Intravitreal injection of CA-1 increased RVP, as measured by vitreous fluorophotometry, in a dose-dependent manner (FIG. 3A), with a maximal increase of 2.3 fold (p<0.05) at 2 μg. […] The effect of a single dose of CA-1 on RVP was sustained at 59% over control at 24 hours post injection (FIG. 3B).

The test system of experiment [3] is RVP in rat eyes injected with human vitreous. Nature of the experiment: Transplant of human vitreous into rat vitreous, RVP measurement. Particulars: vitreous pretreated with 10 μM. Type of experiment: in vivo. How it is done:
In these tests, 10 μl of human vitreous was injected into the rat vitreous compartment and the response on retinal vascular permeability was measured.

Experiment [4] relates to retinal vascular permeability (RVP) in rats. Nature of the experiment: Retinal Evans blue permeability after intravitreal lysed RBC or CA-1. It counts as in vivo, rat. As for the experimental part:
To prepare lysed RBCs, 3 ml rat blood in 15 ml saline was centrifuged at 1,000 g for 10 minutes; the plasma and buffy coat were discarded. The RBCs were then washed in 12 ml saline. The packed cells were frozen in liquid nitrogen for 5 minutes and then allowed to thaw at room temperature. The lysed RBCs were centrifuged at 12,000 rpm for 30 minutes. The supernatant was used for experiment. […] Approximate 21 hours later, Evans blue was injected at a dosage of 30 mg/kg. After the dye had circulated for 3 hours the rats were perfused via the left ventricle with saline. The retina were harvested and Evans blue dye was extracted by incubation in 0.3 ml formamide for 20 hours at 60° C. The extract was centrifuged (14,000 rpm for 30 minutes). The absorbance of the filtrate was measured with a spectrophotometer at 620 nm. The concentration of dye in the extracts was calculated from a standard curve.

In experiment [5] the test system is retina of streptozotocin diabetic rats. In words: OCT imaging of retinal thickness in diabetic rats after intravitreal CA-1. Type of experiment: in vivo, rat. As for the experimental part:
Rats had diabetes induced by intraperitoneal injection of streptozotocin (55 mg/kg) after overnight fast. Diabetes was confirmed after 24 hours with blood glucose greater than 250 mg/dl. After 2 weeks of diabetes, rats were injected intravitreally with CA-1 or BSS and the retinas imaged by OCT after 48 hours. Retinal ultrastructure was imaged and quantitatively measured using a high-speed, ultrahigh resolution OCT system with Fourier/spectral domain detection. Using a broadband superluminescent diode light source (Superlum Diodes Limited, Moscow, Russia) with a 155 nm bandwidth, a 2.6 μm axial resolution in tissue was achieved after digital spectral shaping. The imaging speed was 26,000 axial scans per second and the system sensitivity was 96 dB with an axial (depth) scan range of 1.3 mm in tissue. The OCT research instrument was designed for small animal retinal imaging and used a post-objective scanning microscope with a 10 μm transverse resolution. Corneal refraction was compensated with a coverslip and Goniosol (CIBA Vision Ophthalmics). Each data set consisted of 256 images with 512 axial scans per image, acquired in a raster pattern on the retina. Measurements of intraretinal layer thicknesses were performed on individual cross sectional OCT images.

In experiment [6] the test system is blood-brain barrier permeability in rats. Nature of the experiment: Blood-brain barrier permeability to Evans blue after subdural infusion. It counts as in vivo, rat. How it is done: Approximately 22 hours later, 0.7 ml Evans blue was injected through a jugular vein catheter. After the dye circulated for 120 minutes, the rats were perfused with 50 ml saline through the left ventricle at 110 mmHg pressure. After decapitation, the brain was weighed and Evan's blue was extracted by incubating each brain in 1 ml of formamide for 20 hours at 60° C. The extract was centrifuged (14,000 rpm for 30 minutes). The absorbance of the filtrate was measured with a spectrophotometer at 620 nm. The concentration of dye in the extracts was calculated from a standard curve of Evans blue in formamide, normalized to the brain weight, and expressed per gram of tissue.

[7] abbreviates: intravitreal injection of 100 μM.
The mark [8] stands for this setting: diabetic rat, 48 hours after intravitreal injection, OCT.

As a reminder, the inhibition is the change of the read-out against control, counted positive when it falls. As for `CC(=O)Nc1nnc(S(N)(=O)=O)s1` [acetazolamide, reference compound], the “effect on increase in RVP induced by CA-1” value in experiment [1] (co-injection 10 μM with CA-1) was “blocked”. Besides, the “effect on basal RVP” value in experiment [2] (10 μM) is given as “no effect”. Besides, in experiment [2] (Rattus norvegicus, co-injection of 10 μM, p<0.05, read-out: inhibition of CA-1 induced RVP), the inhibition at 10 µM was 68%. Further, the “effect on RVP in rat eyes injected with vitreous from noDR and NDM groups” value in experiment [3] is “did not affect”. Further, the “RVP in rat eyes injected with vitreous from subjects with PDR” value in experiment [3] (reduced from 13.67±5.23, P=0.017, n=5) came to 9.20±3.85. In experiment [4] (pretreatment of lysed RBC with 10 μM, P<0.05), the “effect on increase in RVP by lysed RBC” value is given as “blocked”.
For the molecule `CC(=O)N[C@@H](CC(C)C)C(=O)N[C@@H](CC(C)C)C(=O)N[C@H](C=O)CCCNC(=N)N` [leupeptin, reference compound], the “reduction of CA-1 stimulated RVP” value in experiment [2] (setting [7]) came out at 71%.
Take “CA-1: carbonic anhydrase-1, extracellular erythrocyte enzyme injected as vascular permeability factor”: the “retinal vascular leakage (fluorescein and 2000 kDa fluorescein-dextran)” value in experiment [1] (48 hours after intravitreal injection) is reported as “focal areas of retinal vascular leakage were observed”. Also, in experiment [1] (intravitreal 2 μg/ml, at 30 minutes, vs baseline or BSS), the retinal fluorescein leakage result is “increased retinal fluorescein leakage”. In addition, in experiment [2] (200 ng/eye (20 μg/ml) intravitreal, vs BSS, P<0.05), the “increase of RVP” value is 2.4 fold. The “maximal increase of RVP” value in experiment [2] (at 2 μg intravitreal, p<0.05) is 2.3 fold. In addition, the “EC50 as final concentration in vitreous” value in experiment [2] (following dilution in 100 uL of rat vitreous) is listed as “about 670 pg/μL”. For the same molecule, in experiment [2] (intravitreal injection), the “EC50 for increase of RVP” value was determined as 67 ng and the “RVP (vitreous fluorescein intensity)” value is given as 17.4 au. Also, the RVP over control in experiment [2] (single dose, 24 hours post injection) turned out to be 59%. In experiment [5] (48 hours), the “increase of ONL share of retinal thickness compared with BSS-treated diabetic rats” value is on record as 17% and the “increase of ONL share of retinal thickness compared with nondiabetic rats” value worked out at 18%. For the same molecule, the “ONL share of overall retinal thickness” value in experiment [5] (diabetic rat, 48 hours) was determined as 38%. In experiment [5] (setting [8]), the “increase in outer nuclear layer (ONL) thickness vs contralateral saline vehicle eye” value stood at 30% and the “increase in retina thickness vs contralateral saline vehicle eye” value was 12%. Further, in experiment [4] (intravitreal injection, Evans blue), the “RVP compared with eyes that received BSS” value was 3.0 fold. The “Evan's blue leakage on posterior and anterior surfaces of the brain” value in experiment [6] (subdural infusion, 24 hours) is reported as “induced intense focal areas of Evan's blue leakage”. The “increase of permeability in brain compared to BSS” value in experiment [6] (subdural infusion, Evan's blue quantification, P<0.05) worked out at 2.3 fold.
Turning to Hoe 140 [reference compound], the “reduction of CA-1 stimulated RVP” value in experiment [2] (co-injection with CA-1) was found to be 67%.
In the case of VEGF, the “RVP (vitreous fluorescein intensity)” value in experiment [2] (intravitreal injection) amounted to 14.5 au.
In the case of aprotinin [reference compound], the “reduction of CA-1 stimulated RVP” value in experiment [2] (setting [7]) is reported as 50%.

B1: C1-INH: Complement-1 Inhibitor, inhibits the serum protease kallikrein (protein, UniProt P05155 23-500, looked up)
Plasma protease C1 inhibitor: NPNATSSSSQDPESLQDRGEGKVATTVISKMLFVEPILEVSSLPTTNSTTNSATKITANTTDEPTTQPTTEPTTQPTIQPTQPTTQLPTDSPTQPTTGSFCPGPVTLCSDLESHSTEAVLGDALVDFSLKLYHAFSAMKKVETNMAFSPFSIASLLTQVLLGAGENTKTNLESILSYPKDFTCVHQALKGFTTKGVTSVSQIFHSPDLAIRDTFVNASRTLYSSSPRVLSNNSDANLELINTWVAKNTNNKISRLLDSLPSDTRLVLLNAIYLSAKWKTTFDPKKTRMEPFHFKNSVIKVPMMNSKKYPVAHFIDQTLKAKVGQLQLSHNLSLVILVPQNLKHRLEDMEQALSPSVFKAIMEKLEMSKFQPTLLTLPRIKVTTSQDMLSIMEKLEFFDFSYDLNLCGLTEDPDLQVSAMQHQTVLELTETGVEAAAASAISVARTLLVFEVQQPFLFVLWDQQHKFPVFMGRVYDPRA
As to B1, in experiment [2] (co-injection), the “effect on VEGF-induced retinal fluorescein permeability” value was “did not affect”. In experiment [2] (co-injection with CA-1), the “reduction of CA-1 stimulated RVP” value was 92%. In addition, the “effect on CA-1-induced cerebral vascular permeability” value in experiment [6] (subdural, with CA-1) was “blocked”.

B2: PEDF: pigment epithelium-derived factor, serpin family protein (protein, UniProt P36955 20-418, looked up)
Pigment epithelium-derived …: QNPASPPEEGSPDPDSTGALVEEEDPFFKVPVNKLAAAVSNFGYDLYRVRSSTSPTTNVLLSPLSVATALSALSLGAEQRTESIIHRALYYDLISSPDIHGTYKELLDTVTAPQKNLKSASRIVFEKKLRIKSSFVAPLEKSYGTRPRVLTGNPRLDLQEINNWVQAQMKGKLARSTKEIPDEISILLLGVAHFKGQWVTKFDSRKTSLEDFYLDEERTVRVPMMSDPKAVLRYGLDSDLSCKIAQLPLTGSMSIIFFLPLKVTQNLTLIEESLTSEFIHDIDRELKTVQAVLTVPKLKLSYEGEVTKSLQEMKLQSLFDSPDFSKITGKPIKLTQVEHRAGFEWNEDGAGTTPSPGLQPAHLTFPLDYHLNQPFIFVLRDTDTGALLFIGKILDPRGP
With B2, the “effect on CA-1 induced permeability” value in experiment [2] is “did not block”.

B3: angiotensinogen: serpin family protein (protein, UniProt P01019 25-476, looked up)
Angiotensinogen: DRVYIHPFHLVIHNESTCEQLAKANAGKPKDPTFIPAPIQAKTSPVDEKALQDQLVLVAAKLDTEDKLRAAMVGMLANFLGFRIYGMHSELWGVVHGATVLSPTAVFGTLASLYLGALDHTADRLQAILGVPWKDKNCTSRLDAHKVLSALQAVQGLLVAQGRADSQAQLLLSTVVGVFTAPGLHLKQPFVQGLALYTPVVLPRSLDFTELDVAAEKIDRFMQAVTGWKTGCSLMGASVDSTLAFNTYVHFQGKMKGFSLLAEPQEFWVDNSTSVSVPMLSGMGTFQHWSDIQDNFSVTQVPFTESACLLLIQPHYASDLDKVEGLTFQQNSLNWMKKLSPRTIHLTMPQLVLQGSYDLQDLLAQAELPAILHTELNLQKLSNDRIRVGEVLNSIFFELEADEREPTESTQQLNKPEVLEVTLNRPFLFAVYDQSATALHFLGRVANPLSTA
Consider B3, for which the “effect on CA-1 induced permeability” value in experiment [2] is reported as “did not block”.
